Experimental data as given in the Deep4Chem optical property database.

Experiment: photoluminescence quantum yield (fraction); solvent given as SMILES

COc1nc(Nc2ccc3ccc4cccc5ccc2c3c45)nc(OC)n1
photoluminescence quantum yield (in CC#N): 0.24 | photoluminescence quantum yield (in CCCCOCCCC): 0.57 | photoluminescence quantum yield (in CO): 0.02

C(=C\c1ncccn1)/c1ccc(-c2ccc(N(c3ccccc3)c3ccccc3)cc2)cc1
photoluminescence quantum yield (in ClCCl): 0.6

COc1ccc(C#Cc2nc3ccccc3nc2-c2ccn(-c3ccccc3)c2)cc1
photoluminescence quantum yield (in ClCCl): 0.24

Cc1ccc(C2=Cc3ccc4ccccc4[n+]3[B-](F)(F)O2)cc1
photoluminescence quantum yield (in ClC(Cl)Cl): 0.75

COc1cc(/C=C/CO)ccc1O
photoluminescence quantum yield (in O): 0.1

CCC[Si](CCC)(CCC)c1cc2ccc3cccc4ccc(c1C(=O)NC(C)(C)C)c2c34
photoluminescence quantum yield (in ClC(Cl)Cl): 0.161

COc1cc2c3c(c4cc(OC)c(OC)c(OC)c4c2c(OC)c1OC)=[N+]1C(=C(c2c(C)cc(C)cc2C)c2cc4c5cc(OC)c(OC)c(OC)c5c5c(OC)c(OC)c(OC)cc5c4n2[B-]1(F)F)C=3
photoluminescence quantum yield (in C1CCCCC1): 0.1 | photoluminescence quantum yield (in C1CCOC1): 0.001 | photoluminescence quantum yield (in CC#N): 0.001 | photoluminescence quantum yield (in Cc1ccccc1): 0.001 | photoluminescence quantum yield (in ClCCl): 0.001

Cn1c2ccccc2c2c1c1ccccc1n2C
photoluminescence quantum yield (in CCCO): 0.81

CC1=[N+]2C(=C(c3ccc(C(=C(c4ccccc4)c4ccccc4)c4ccccc4)cc3)c3ccc(/C=C/c4ccc(C(=C(c5ccccc5)c5ccccc5)c5ccccc5)cc4)n3[B-]2(F)F)C=C1
photoluminescence quantum yield (in C1CCOC1): 0.619

CC1(C)c2ccccc2N(c2ccc(-c3nc4c(C#N)ccc(C#N)c4nc3-c3ccc(N4c5ccccc5C(C)(C)c5ccccc54)cc3)cc2)c2ccccc21
photoluminescence quantum yield (in Cc1ccccc1): 0.72

Cc1cc(C)c(B(c2ccc(-c3ccc(-c4nc5c6ccccc6c6ccccc6c5[nH]4)cc3)cc2)c2c(C)cc(C)cc2C)c(C)c1
photoluminescence quantum yield (in C1CCOC1): 0.74 | photoluminescence quantum yield (in CC(C)=O): 0.56 | photoluminescence quantum yield (in CS(C)=O): 0.49 | photoluminescence quantum yield (in Cc1ccccc1): 0.68 | photoluminescence quantum yield (in ClCCl): 0.59

CC(C)[Si](C#Cc1c2ccccc2c(C#C[Si](C(C)C)(C(C)C)C(C)C)c2nc3c(ccc4cc5ccccc5cc43)nc12)(C(C)C)C(C)C
photoluminescence quantum yield (in CCCCCC): 0.12

COC(=O)/C=C/c1ccc2ccc3cccc4ccc1c2c34
photoluminescence quantum yield (in C1CCOC1): 0.73 | photoluminescence quantum yield (in C1COCCO1): 0.55 | photoluminescence quantum yield (in CC#N): 0.46 | photoluminescence quantum yield (in CC(C)=O): 0.51 | photoluminescence quantum yield (in CCCCCC): 0.46 | photoluminescence quantum yield (in CCOC(C)=O): 0.57 | photoluminescence quantum yield (in CO): 0.26 | photoluminescence quantum yield (in Cc1ccccc1): 0.47

COc1ccc2n1[B-](F)(F)[N+]1=C(SC#N)C=CC1=C2c1ccccc1
photoluminescence quantum yield (in CC#N): 0.05 | photoluminescence quantum yield (in CCCCCC): 0.08 | photoluminescence quantum yield (in CCOC(C)=O): 0.04 | photoluminescence quantum yield (in CO): 0.05 | photoluminescence quantum yield (in ClCCl): 0.07

CCCCOC(=O)c1cc(Oc2ccc(C(C)(C)C)cc2)c2c3c(Cl)cc4c5c(cc(Cl)c(c6c(Oc7ccc(C(C)(C)C)cc7)cc(C(=O)OCCCC)c1c26)c53)C(=O)N(c1c(C(C)C)cccc1C(C)C)C4=O
photoluminescence quantum yield (in Cc1ccccc1): 0.79

O=c1cc2cc(O)c3cc(O)cc4ccc(o1)c2c43
photoluminescence quantum yield (in CC1CCCO1): 0.36

Cc1nc2cc3c4c(cccc4c2o1)C(=O)OC3=O
photoluminescence quantum yield (in CCO): 0.1

CCCCCCCCCCCCC(CCCCCCCCCC)Cn1c2cc(/C=C/C=C(C#N)C#N)c3cccc4c5cccc6c(/C=C/C=C(C#N)C#N)cc1c(c65)c2c34 (centres undefined)
photoluminescence quantum yield (in C1CCCCC1): 0.044 | photoluminescence quantum yield (in CC#N): 0.061 | photoluminescence quantum yield (in Cc1ccccc1): 0.073 | photoluminescence quantum yield (in ClCCl): 0.067

CCCCCCCC1=C(C)C(=O)n2c1cc1[nH]c(C(=O)OC)c(C)c1c2=O
photoluminescence quantum yield (in C1CCCCC1): 0.02 | photoluminescence quantum yield (in CO): 0.73 | photoluminescence quantum yield (in CS(C)=O): 0.83 | photoluminescence quantum yield (in ClC(Cl)Cl): 0.52 | photoluminescence quantum yield (in c1ccccc1): 0.1

C[C@@]12SC(Cl)=CC1=c1nc(-c3ccccc3)[nH]c1=C1C=C(Cl)S[C@]12C
photoluminescence quantum yield (in CC#N): 0.014

C(#Cc1c(C#Cc2cccs2)c(C#Cc2cccs2)c(C#Cc2cccs2)c(C#Cc2cccs2)c1C#Cc1cccs1)c1cccs1
photoluminescence quantum yield (in ClCCl): 0.27

Cc1cc(C2=C(c3cc(C)sc3C)S(=O)(=O)c3ccccc32)c(C)s1
photoluminescence quantum yield (in C1CCOC1): 0.016

COc1cccc2oc(-c3cc4c(OC)cccc4oc3=O)cc12
photoluminescence quantum yield (in CS(C)=O): 0.68

COc1ccc(N(c2ccccc2)c2ccc(OC)cc2)cc1
photoluminescence quantum yield (in Cc1ccccc1): 0.03

C[Si]1(c2ccccc2)C(c2ccc3c4ccccc4n(-c4ccccc4)c3c2)=C(c2ccccc2)C(c2ccccc2)=C1c1ccc2c3ccccc3n(-c3ccccc3)c2c1
photoluminescence quantum yield (in C1CCOC1): 0.0575

C[Si]1(c2ccccc2)C(c2ccc(-n3c4ccccc4c4ccccc43)cc2)=C(c2ccccc2)C(c2ccccc2)=C1c1ccc(-n2c3ccccc3c3ccccc32)cc1
photoluminescence quantum yield (in C1CCOC1): 0.032

CC(C)(C(=O)c1ccc(N2c3ccccc3C(C)(C)c3ccccc32)cc1)C(=O)c1ccc(N2c3ccccc3C(C)(C)c3ccccc32)cc1
photoluminescence quantum yield (in c1ccc2c(c1)c1ccccc1n2-c1ccc(-c2ccc(-n3c4ccccc4c4ccccc43)cc2)cc1): 0.64

CCOC(=O)c1ccc2c(c1)[nH]c1c3ccc(C(=O)OCC)cc3[se]c21
photoluminescence quantum yield (in CCCO): 0.017

COc1ccc2cc(/C=C/c3ccc([N+](=O)[O-])cc3)c(=O)oc2c1
photoluminescence quantum yield (in CC#N): 0.24

c1ccc(-c2nc(-c3ccccc3)nc(-c3cc(-n4c5ccccc5c5ncccc54)c(-n4c5ccccc5c5ccccc54)c(-n4c5ccccc5c5ncccc54)c3)n2)cc1
photoluminescence quantum yield (in O=P(c1ccccc1)(c1ccccc1)c1ccccc1Oc1ccccc1P(=O)(c1ccccc1)c1ccccc1): 0.85

COc1cccc(/C=C/c2ccccc2)c1
photoluminescence quantum yield (in C1CCCCC1): 0.18 | photoluminescence quantum yield (in CC#N): 0.16 | photoluminescence quantum yield (in CC(C)O): 0.15 | photoluminescence quantum yield (in CCCCOCCCC): 0.2 | photoluminescence quantum yield (in CCOC(C)=O): 0.18 | photoluminescence quantum yield (in CCOCC): 0.18
